Measured values: US20030032587A1, “Urocortin peptides” (The Salk Institute for Biological Studies, priority 1995, published 2003)
Bridges are numbered along the chain shown (N, C = ends). Where no end group is shown, it is not given here. [ ]: non-standard residue; d: D form.

Tests used:
[1] = test system: mammalian mean arterial blood pressure; experiment: in vivo test measuring elevation of mean arterial blood pressure as a result of iv injection; conditions: result in words; indicative of a Ucn antagonist
Text: The peptide, Ucn(11-40), having the amino acid sequence (see SEQ ID NO: 8): […] is synthesized in the manner described in Example I. To evaluate the biological activity of a candidate peptide as a Ucn antagonist (which will be indicative of its effective binding to CRF receptors), the previously mentioned assay from Endocrinology, 91, supra, is run in the presence of a challenge dose of ovine CRF. […] An in vivo test measuring elevation of mean arterial blood pressure as a result of iv injection is also simply and straightforwardly performed.

[2] = test system: rat anterior pituitary cells; experiment: ACTH secretion by anterior pituitary cell cultures in the presence of a challenge dose of ovine CRF (antagonist test); type: cell-based; conditions: challenge dose of ovine CRF; relative to [D-Phe12,Nle21,38]-r/hCRF(12-41)
Text: A straightforward assay using rat anterior pituitary cells in monolayer culture can be carried out to determine whether a candidate peptide thereof will function as a CRF agonist and stimulate ACTH secretion by activating CRF receptors on such cells. The procedure which is used is that generally set forth in Endocrinology, 91, supra. A very similar assay is used to test for antagonistic properties, using a challenge dose of oCRF or the like.
An in vivo test measuring elevation of mean arterial blood pressure as a result of iv injection is also simply and straightforwardly performed.

rats = experiment: ACTH secretion in vivo, ACTH level in plasma; conditions: 5 μg/kg dose, at 30 minutes
[3] = target: CRF receptors on anterior pituitary cells in culture; experiment: cell-based or functional assay
[4] = target: T1, human CRF binding protein (human, UniProt P24387 25-322); experiment: competitive hCRF-BP ligand binding assay with [125I-DTyr0]hCRF
T1 construct: also called hCRF-BP; CRF-BP
T1 sequence (looked up): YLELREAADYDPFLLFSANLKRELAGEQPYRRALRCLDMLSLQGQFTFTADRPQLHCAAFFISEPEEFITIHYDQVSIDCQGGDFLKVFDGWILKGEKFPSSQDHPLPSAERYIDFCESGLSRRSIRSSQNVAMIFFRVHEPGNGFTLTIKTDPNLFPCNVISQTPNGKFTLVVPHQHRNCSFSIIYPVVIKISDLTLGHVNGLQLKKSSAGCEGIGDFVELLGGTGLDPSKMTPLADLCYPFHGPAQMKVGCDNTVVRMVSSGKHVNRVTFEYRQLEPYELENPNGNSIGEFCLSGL
Experimental: After incubating with the primary and secondary antisera for 30 minutes each, 1 ml of saline wash is added, and the test tubes are centrifuged at 2000× g for 20 minutes at 4° C. Precipitates are counted in a gamma counter. Inhibitory binding affinity constant (Kᵢ) values are determined using parameters calculated by the LIGAND computer program, Munson et al., Anal. Biochem., 107, 220 (1980), and a Vax/VMS computer system.

Molecule: H-Pro-D-Phe-His-Leu-Leu-Arg-Thr-Leu-Leu-Glu-Leu-Ala-Arg-Thr-Gln-Ser-Gln-Arg-Glu-Glu-Ala-D-Glu-Lys-Asn-Arg-Ile-Ile-Phe-Asp-Ser-Val-NH2 (H-P[dF]HLLRTLLELARTQSQREEA[dE]KNRIIFDSV-NH2; lactam 20-23; SMILES CC[C@H](C)[C@H](NC(=O)[C@H](CCCNC(=N)N)NC(=O)[C@H](CC(N)=O)NC(=O)[C@@H]1CCCCNC(=O)CC[C@H](NC(=O)[C@H](CCC(=O)O)NC(=O)[C@H](CCCNC(=N)N)NC(=O)[C@H](CCC(N)=O)NC(=O)[C@H](CO)NC(=O)[C@H](CCC(N)=O)NC(=O)[C@@H](NC(=O)[C@H](CCCNC(=N)N)NC(=O)[C@H](C)NC(=O)[C@H](CC(C)C)NC(=O)[C@H](CCC(=O)O)NC(=O)[C@H](CC(C)C)NC(=O)[C@H](CC(C)C)NC(=O)[C@@H](NC(=O)[C@H](CCCNC(=N)N)NC(=O)[C@H](CC(C)C)NC(=O)[C@H](CC(C)C)NC(=O)[C@H](Cc2c[nH]cn2)NC(=O)[C@@H](Cc2ccccc2)NC(=O)[C@@H]2CCCN2)[C@@H](C)O)[C@@H](C)O)C(=O)N[C@@H](C)C(=O)N[C@H](CCC(=O)O)C(=O)N1)C(=O)N[C@H](C(=O)N[C@@H](Cc1ccccc1)C(=O)N[C@@H](CC(=O)O)C(=O)N[C@@H](CO)C(=O)N[C@H](C(N)=O)C(C)C)[C@@H](C)CC)
- vasoconstrictive activity causing elevation of mean arterial blood pressure [1]: significant mammalian vasoconstrictive activity
- inhibition of ACTH secretion in vitro, times as effective as the Standard Antagonist (confidence limits) [2]: 2.74 (1.02-8.02)

Molecule: H-D-Pro-D-Phe-His-Leu-Leu-Arg-Thr-Leu-Leu-Glu-Leu-Ala-Arg-Thr-Gln-Ser-Gln-Arg-Glu-Glu-Ala-D-Glu-Lys-Asn-Arg-Ile-Ile-Phe-Asp-Ser-Val-NH2 (H-[dP][dF]HLLRTLLELARTQSQREEA[dE]KNRIIFDSV-NH2; lactam 20-23; SMILES CC[C@H](C)[C@H](NC(=O)[C@H](CCCNC(=N)N)NC(=O)[C@H](CC(N)=O)NC(=O)[C@@H]1CCCCNC(=O)CC[C@H](NC(=O)[C@H](CCC(=O)O)NC(=O)[C@H](CCCNC(=N)N)NC(=O)[C@H](CCC(N)=O)NC(=O)[C@H](CO)NC(=O)[C@H](CCC(N)=O)NC(=O)[C@@H](NC(=O)[C@H](CCCNC(=N)N)NC(=O)[C@H](C)NC(=O)[C@H](CC(C)C)NC(=O)[C@H](CCC(=O)O)NC(=O)[C@H](CC(C)C)NC(=O)[C@H](CC(C)C)NC(=O)[C@@H](NC(=O)[C@H](CCCNC(=N)N)NC(=O)[C@H](CC(C)C)NC(=O)[C@H](CC(C)C)NC(=O)[C@H](Cc2c[nH]cn2)NC(=O)[C@@H](Cc2ccccc2)NC(=O)[C@H]2CCCN2)[C@@H](C)O)[C@@H](C)O)C(=O)N[C@@H](C)C(=O)N[C@H](CCC(=O)O)C(=O)N1)C(=O)N[C@H](C(=O)N[C@@H](Cc1ccccc1)C(=O)N[C@@H](CC(=O)O)C(=O)N[C@@H](CO)C(=O)N[C@H](C(N)=O)C(C)C)[C@@H](C)CC)
- vasoconstrictive activity causing elevation of mean arterial blood pressure [1]: significant mammalian vasoconstrictive activity
- inhibition of ACTH secretion in vitro, times as effective as the Standard Antagonist (confidence limits) [2]: 4.99 (2.26-11.55)

Molecule: CC[C@H](C)[C@H](NC(=O)[C@@H](NC(=O)[C@H](CCC(=O)O)NC(=O)[C@H](CCSC)NC(=O)[C@H](CC(C)C)NC(=O)[C@H](CCCCN)NC(=O)[C@H](CCCNC(=N)N)NC(=O)[C@H](CC(N)=O)NC(=O)[C@H](CO)NC(=O)[C@H](Cc1c[nH]cn1)NC(=O)[C@H](C)NC(=O)[C@H](CCC(N)=O)NC(=O)[C@H](CCC(N)=O)NC(=O)[C@H](C)NC(=O)[C@H](CC(C)C)NC(=O)[C@H](CCC(N)=O)NC(=O)[C@H](CCC(=O)O)NC(=O)[C@H](C)NC(=O)[C@H](CCCNC(=N)N)NC(=O)[C@H](C)NC(=O)[C@H](CCSC)NC(=O)[C@H](CCC(=O)O)NC(=O)[C@H](CC(C)C)NC(=O)[C@@H](NC(=O)[C@H](CCC(=O)O)NC(=O)[C@H](CCCNC(=N)N)NC(=O)[C@H](CC(C)C)NC(=O)[C@H](CC(C)C)NC(=O)[C@H](Cc1c[nH]cn1)NC(=O)[C@H](Cc1ccccc1)NC(=O)[C@@H](NC(=O)[C@H](CC(C)C)NC(=O)[C@H](CC(=O)O)NC(=O)[C@H](CC(C)C)NC(=O)[C@H](CO)NC(=O)[C@@H](NC(=O)[C@@H]1CCCN1C(=O)[C@@H]1CCCN1C(=O)[C@H](CCC(=O)O)NC(=O)[C@H](CCC(=O)O)NC(=O)[C@@H](N)CO)[C@@H](C)CC)[C@@H](C)O)C(C)C)[C@@H](C)CC)C(N)=O [r/hCRF, reference compound]
- ACTH level in plasma (rats): 422 ± 66 pg/mL

Molecule: H-D-Phe-His-Leu-Leu-Arg-Thr-Leu-Leu-Glu-Leu-Ala-Arg-Thr-Gln-Ser-Gln-Arg-Glu-Arg-Ala-Glu-Gln-Asn-Arg-Ile-Ile-Phe-Asp-Ser-Val-NH2 (H-[dF]HLLRTLLELARTQSQRERAEQNRIIFDSV-NH2; SMILES CC[C@H](C)[C@H](NC(=O)[C@H](CCCNC(=N)N)NC(=O)[C@H](CC(N)=O)NC(=O)[C@H](CCC(N)=O)NC(=O)[C@H](CCC(=O)O)NC(=O)[C@H](C)NC(=O)[C@H](CCCNC(=N)N)NC(=O)[C@H](CCC(=O)O)NC(=O)[C@H](CCCNC(=N)N)NC(=O)[C@H](CCC(N)=O)NC(=O)[C@H](CO)NC(=O)[C@H](CCC(N)=O)NC(=O)[C@@H](NC(=O)[C@H](CCCNC(=N)N)NC(=O)[C@H](C)NC(=O)[C@H](CC(C)C)NC(=O)[C@H](CCC(=O)O)NC(=O)[C@H](CC(C)C)NC(=O)[C@H](CC(C)C)NC(=O)[C@@H](NC(=O)[C@H](CCCNC(=N)N)NC(=O)[C@H](CC(C)C)NC(=O)[C@H](CC(C)C)NC(=O)[C@H](Cc1c[nH]cn1)NC(=O)[C@H](N)Cc1ccccc1)[C@@H](C)O)[C@@H](C)O)C(=O)N[C@H](C(=O)N[C@@H](Cc1ccccc1)C(=O)N[C@@H](CC(=O)O)C(=O)N[C@@H](CO)C(=O)N[C@H](C(N)=O)C(C)C)[C@@H](C)CC) [[D-Phe^11]-Ucn(11-40)]
- vasoconstrictive activity causing elevation of mean arterial blood pressure [1]: significant mammalian vasoconstrictive activity
- inhibition of ACTH secretion in vitro, times as effective as the Standard Antagonist (confidence limits) [2]: 0.551 (0.333-0.857)

Molecule: DNPSLSIDLTFHLLRTLLELARTQSQRERAEQNRIIFDSV-NH2 [Human Ucn(1-40)]
- ACTH secretion, anterior pituitary cell cultures, potency relative to r/hCRF [3]: 3.1 times r/hCRF

B1: [D-Phe11]-Ucn(11-40) (peptide)
peptide: [dF]HLLRTLLELARTQSQRERAEQNRIIFDSV-NH2
modifications: N-terminus assumed
SMILES: CC[C@H](C)[C@H](NC(=O)[C@H](CCCNC(=N)N)NC(=O)[C@H](CC(N)=O)NC(=O)[C@H](CCC(N)=O)NC(=O)[C@H](CCC(=O)O)NC(=O)[C@H](C)NC(=O)[C@H](CCCNC(=N)N)NC(=O)[C@H](CCC(=O)O)NC(=O)[C@H](CCCNC(=N)N)NC(=O)[C@H](CCC(N)=O)NC(=O)[C@H](CO)NC(=O)[C@H](CCC(N)=O)NC(=O)[C@@H](NC(=O)[C@H](CCCNC(=N)N)NC(=O)[C@H](C)NC(=O)[C@H](CC(C)C)NC(=O)[C@H](CCC(=O)O)NC(=O)[C@H](CC(C)C)NC(=O)[C@H](CC(C)C)NC(=O)[C@@H](NC(=O)[C@H](CCCNC(=N)N)NC(=O)[C@H](CC(C)C)NC(=O)[C@H](CC(C)C)NC(=O)[C@H](Cc1c[nH]cn1)NC(=O)[C@H](N)Cc1ccccc1)[C@@H](C)O)[C@@H](C)O)C(=O)N[C@H](C(=O)N[C@@H](Cc1ccccc1)C(=O)N[C@@H](CC(=O)O)C(=O)N[C@@H](CO)C(=O)N[C@H](C(N)=O)C(C)C)[C@@H](C)CC
- antagonism of ACTH secretion under a challenge dose of ovine CRF, potency relative to the Standard Antagonist [D-Phe12, Nle21,38]-r/hCRF(12-41) (times Standard Antagonist) [3]: 0.551

Molecule: DDPPLSIDLTFHLLRTLLELARTQSQRERAEQNRIIFDSV-NH2 [rat urocortin (rat Ucn)]
- EC50, secretion of ACTH in cultured rodent pituitary cells [3]: 6 pM

Molecule: LSIDLTFHLLRTLLELARTQSQRERAEQ (Printed without NH2 at the C-terminus) [Ucn(5-32)]
- binding result [4]: binds

Molecule: DLTFHLLRTLLELARTQSQRERAEQ (Printed without NH2 at the C-terminus) [Ucn(8-32)]
- binding result [4]: binds

Molecule: PPLSIDLTFHLLRTLLELARTQSQR (Printed without NH2) [Ucn(3-27)]
- binding result [4]: binds

Molecule: SIDLTFHLLRTLIELARTQSQRER (Printed without NH2 at the C-terminus) [[Ile18]-Ucn(6-29)]
- binding result [4]: binds
